This is an account of results in patent US7651979B2, “Coordination complexes, and methods for preparing by combinatorial methods, assaying and using the same” (priority 2000, dated 2010).

The test system of experiment [1] is BlaM HeLa cells. The experiment is classed as cell-based, human. To be noted: for response of independently synthesized compounds on the BlaM HeLa assay: pure compounds made by non-combinatorial means; for ratio of green to blue fluorescence with increasing concentration: increasing concentrations, FIG. 7, twenty-eight hours. The text has this: Another example of a subject assay is termed the CCF2/AM assay. The CCF2/AM dye is an effective assay for the presence of β-lactamase, and thus may be used as a sensor for its transcription. See, for example, U.S. Pat. No. 5,955,604 and WO 9630540. This screen in based on a cellular response that is relatively unique to cisplatin. […] See Sandman et al., Chem. Bio. 6:541-51 (1999). […] In addition, the rapid inhibition of transcription, which occurs prior to apoptosis, may be evaluated over a short period of time. In the BlaM HeLa cell line used herein, the inhibition of transcription coupled with the half-life of ambient β-lactamase results in a one-day screening protocol.
To screen drug candidates for transcription inhibition activity, genetically modified HeLa cells developed by Aurora Biosciences were exposed to the products from the above parallel reactions. BlaM HeLa cells have been permanently transfected with a vector encoding the 29-kD plasmid encoded TEM-1 β-lactamase from E. coli. This enzyme is the product of the ampicillin resistance gene Amp^r, and is not normally expressed in mammalian cells.
BlaM HeLa cells were grown up from stock provided by Aurora Biosciences using standard cell culture techniques. This cell line was grown in 10 cm plates by using a modified Dulbecco's Modified Eagle Medium supplemented with 10% fetal bovine serum, 2 mM L-glutamine, 1.0 mM sodium pyruvate, and 0.1 mM non-essential amino acids. Bacterial growth was inhibited through intermittent exposure to […], and selection of the BlaM cells was maintained through the weekly administration of 800 μg/mL G418 (geneticin).
For plate reader-based experiments, HeLa cells were distributed into black, clear-bottom, 96-well plates (Corning). Nearly confluent 10 cm plates (60-70%) were trypsinized and distributed (100 μL) into the 96-well plates, and allowed to adhere and grow for approximately 18 h. Cells were then washed with 100 μL PBS and provided with fresh media prior to treatment. After treatment, the cells were exposed to the CCF2/AM dye for one hour, and measured for fluorescence on the fmax plate reader. The cellular response to platinum compounds was determined by taking the ratio of the absolute value of measured fluorescence at 530 nm (green) over the absolute value of measured fluorescence at 460 nm (blue). This response is corrected for the background of the microplate.
Concentration and time-dependent studies were conducted with cisplatin and other pure platinum compounds to determine the response of the cells to platinum chemotherapeutics. For the library screen, cells were exposed to 30 μM of platinum product from the reactions for 28 hours. 72 reactions were screened manually per day, with each compound measured in triplicate. […] After the exposure period the cells were worked up using the CCF2/AM dye protocol, and hits were determined by their response related to that of a cisplatin standard at the same concentration. Initial hits were then rescreened for dose dependent toxicity, over a range from 0 to 75 μM concentrations.

Experiment [2] has as its system BlaM HeLa cells. In words: Northern blotting of RNA from BlaM HeLa cells. The experiment is classed as cell-based, human. The note with it: 30 μM, 12 hours, FIG. 5. The protocol: Two 10 cm plates of BlaM HeLa cells were grown to 60-70% confluence, and one treated with 30 μM cisplatin for twelve hours. After this treatment, RNA was extracted from the cells on each plate using an Ambion kit and quantified by UV-visible spectroscopy. The RNA was electrophoresed on an agarose-formaldehyde gel, transferred to a nylon membrane, and crosslinked with a Stratalinker UV device by using standard procedures. This blot was probed with ^32P labeled BlaM fragment from pcDNA-3 (Aurora Biosciences) and 7S RNA from pUC(Amp), and quantified by a Biorad phosphorimager apparatus.

On to `Cc1cccnc1N.N.[Cl][Pt][Cl]` [cis-ammine(2-amino-3-picoline)dichloroplatinum(II)], for which, in the experiment on BlaM HeLa cells [1], the “response of independently synthesized compounds on the BlaM HeLa assay” value (from here on “response … on the BlaM HeLa assay”) is “positive response”.

With `N.N.[Cl][Pt][Cl]` [trans-DDP, trans-diamminedichloroplatinum(II)], the “ratio of green to blue fluorescence with increasing concentration” value in the experiment on BlaM HeLa cells [1] is recorded as “no increase”. Also, the “cell response over time” value in the experiment on BlaM HeLa cells [1] (time dependence, any of the times measured, FIG. 8) is recorded as “no cell response”.

For `[Cl][Pt]([Cl])([NH]C1CCC1)[NH]C1CCC1` [bis-cyclobutylamine species, cis-(cyclobutylamine)2PtCl2], the “response … on the BlaM HeLa assay” value in the experiment with BlaM HeLa cells [1] is “positive response”.

Turning to `CC(C)N.CC(C)N.[Cl-].[Cl-].[Pt+2]` [cis-(isopropylamine)2PtCl2], in the experiment on BlaM HeLa cells [1], the “response … on the BlaM HeLa assay” value is reported as “positive response”.

As for `N.N.[Cl][Pt][Cl]` [cisplatin, cis-diamminedichloroplatinum(II)], in the experiment with BlaM HeLa cells [1] (30 μM, 28 hours, triplicate, response above 0.092 considered a hit), the “response (ratio of fluorescence at 530 nm (green) over 460 nm (blue)) in initial screen” value came to 0.092. In the experiment on BlaM HeLa cells [1], the “ratio of green to blue fluorescence with increasing concentration” value is given as “definite increase”. Besides, in the experiment on BlaM HeLa cells [1] (time dependence, FIG. 8), the “time at which cell response peaked” value was “approximately 20 hours”. Further, the “transcription of both the BlaM vector and control 7S RNA” value in the experiment on BlaM HeLa cells [2] was “decrease in transcription”.

Turning to `[NH2][Pt]([Cl])([Cl])[NH]C1CCC1` [ammine-cyclobutylamine complex, cis-ammine(cyclobutylamine)PtCl2], the “response … on the BlaM HeLa assay” value in the experiment on BlaM HeLa cells [1] is on record as “positive response”.

In the case of `O=[N+]([O-])[O-].[Ag+]` [silver nitrate], the transcription inhibition response result in the experiment with BlaM HeLa cells [1] (in media, same concentration as cisplatin (~30 μM), FIG. 9) is “does not give a transcription inhibition response”.
